Data published in patent publication US8288111B2 (Abbott Laboratories, priority 2007, dated 2012).

Legend:
[1] = times greater than cyclosporine CsA; cited from earlier work
[2] = tested on: anti-CsA monoclonal antibody; experiment: Abbott AxSYM CsA immunoassay (FPIA) cross-reactivity; format: binding, mouse; details: 200 ng/mL cyclosporine; metabolite 250 ng/mL
Experimental: (§1) Antibody. The anti-CsA monoclonal antibody used in the […]® assay is immobilized on Goat Anti-Mouse (GAM) antibody coated magnetic microparticles. The same anti-CsA antibody is used in soluble form in the Abbott TDx and AxSYM® assays (Abbott Laboratories, Abbott Park, Ill.). Soluble mouse anti-CsA antibody is added directly to GAM microparticles and non-covalent binding occurs by antibody-mediated binding. GAM antibody is passively bound to magnetic polystyrene microparticles and then treated with a water-soluble carbodiimide to fix the antibody on the particle. GAM particles can be prepared using ordinary skill in the art.
(§2) FPIA test methods. Abbott TDx Monoclonal and AxSYM® immunoassays were measured on specimens and calibrators using procedures described in the package inserts. Specimens were extracted with a combination of saponin, organic solvent and Zinc sulfate and precipitated protein was centrifuged down. The clear supernatant was tested using assay reagents (Tracer, Antibody and Assay Diluent). However, in Example 4, the different extraction (pretreatment) methods of TDx and AxSYM® were employed, but all results were generated on […]®.
Cross-reactivities for AM9 (500 ng/mL) were 12.6% for AxSYM®, 25% for CEDIA, and 6% for EMIT.

[3] = tested on: anti-CsA monoclonal antibody; experiment: Abbott TDx Monoclonal CsA immunoassay (FPIA) cross-reactivity; format: binding, mouse; details: 200 ng/mL cyclosporine; metabolite 250 ng/mL
Experimental: as §1, §2

cyclosporine antibody = experiment: Dade RxLFlex cyclosporine assay cross-reactivity; format: binding; details: 200 ng/mL cyclosporine; metabolite 1000 ng/mL

SMILES	in vivo potency relative to cyclosporine CsA [1]	Abbott AxSYM cross-reactivity [2]	Abbott TDx cross-reactivity [3]	Dade RxLFlex cross-reactivity (cyclosporine antibody)
C=CC[C@@H]1/C=C(\C)C[C@H](C)C[C@H](OC)[C@H]2O[C@@](O)(C(=O)C(=O)N3CCCC[C@H]3C(=O)O[C@H](/C(C)=C/[C@@H]3CC[C@@H](O)[C@H](OC)C3)[C@H](C)[C@@H](O)CC1=O)[C@H](C)C[C@@H]2OC [Tacrolimus, tacrolimus]	50-100 times	–	–	–
CC[C@@H]1NC(=O)[C@H]([C@H](O)[C@H](C)C/C=C/CO)N(C)C(=O)[C@H](C(C)C)N(C)C(=O)[C@H](CC(C)C)N(C)C(=O)[C@H](CC(C)(C)O)N(C)C(=O)[C@@H](C)NC(=O)[C@H](C)NC(=O)[C@H](CC(C)C)N(C)C(=O)[C@H](C(C)C)NC(=O)[C@H](CC(C)C)N(C)C(=O)CN(C)C1=O [AM19]	–	not statistically significant	not statistically significant	2-3%
